Patent US12440493B2, “Combination therapy for treating cancer comprising substituted piperazines” (Eli Lilly and Company, priority 2020, dated 2025)
Values joined by “and” are separate entries in the source; they are usually repeats but may differ in a detail not shown here. Identical values can stand only once.

Tests used:
Format in all cases: in vivo
[1] = system: IDH1(R132H) primary human AML cells; assay: AML clearance in peripheral blood (flow cytometry, % hCD33+hCD45+ of total white cells), human AML PDx models in NSG mice
Procedure: (§1) Compounds and Formulation. For in vivo studies, each test article is prepared at an appropriate concentration with vehicle. […] Compound A is prepared fresh at the appropriate concentrations with vehicle every 7 days and stored at 4° C. between doses. […] Cytarabine is prepared fresh weekly by dilution with sterile saline from stock solution of Cytarabine (injection 20 mg/mL, (Pfizer injectables')). Azacitidine (Sigma, Lot #MKBR7212) is formulated in sterile water and is prepared fresh daily immediately before dosing. In vivo human AML PDx models. […] Two models are used in the studies: […] As needed, splenocytes from tumor-bearing mice are used to propagate and expand the models, as described. Each test article is prepared as described above at an appropriate concentration with vehicle to give animals the doses tested in this study at a dosing volume of 10 μL/gram body weight. Mice receiving Compound A (PO, QD) are treated at the indicated doses for the duration of the study. The combination agents are dosed as follows: […] Treated mice are assessed in comparison to vehicle treated and naïve (non-tumor bearing) control mice. Body weight is recorded twice per week. […] AML PDx model propagation. […] Spleens are processed and splenocytes isolated as described below. Two hundred μL per subject of the splenocyte prep is injected IV (intravenous, tail vein) into recipient NSG mice. […] Once engraftment is confirmed, the mice are monitored biweekly until ready to be put on study. […] Submandibular blood is collected. Spleen/Splenocyte Processing and Prep. After excision, a spleen is weighed, and […] is placed in a standard sterile 15 mL polypropylene conical tube containing PBS, and placed on ice. […] The spleen is placed in ice cold sterile PBS in a 15 mL collection tube. The spleen is removed from the collection tube and placed in a 100 micron 50 mL conical tube cell strainer (BD Falcon #352360). The spleen is processed by gentle rubbing of the spleen tissue against the surface of the cell strainer with the end of a 5 mL syringe plunger in a circular motion. The surface of the strainer is rinsed with 10 mL room temperature sterile DPBS (HyClone SH30028) 3 times during the process. […] The cell pellet is collected by centrifugation (300×g) and washed three times with 30 mL sterile DPBS. The cells are counted and resuspended in DPBS at the desired implant concentration. Bone Marrow Collection. […] Flow cytometry analysis of human white cells. Submandibular blood samples from in vivo studies are collected. Fluor-conjugated antibody stains are added according to the manufacturer's instructions (anti-human CD33-PE (clone WM53, BD Cat #555450), anti-human CD14-APC (clone MφpP9, BD Cat #340436), anti-human CD15-V450 (clone HI98, BD Cat #561584), anti-human CD117-BV421 (clone YB5.B8, BD Cat #562434), anti-human […]7 (clone ICRF44, BD Cat #557754), anti-human […]7 (clone HI30, BD Cat #557748), and anti-human CD3-FITC (clone SK7, BD Cat #340542)). The samples are incubated for 30 minutes at room temperature, protected from light. After the incubation, 1.5 mL 1×BD Lyse/Fix (37° C., (BD #558049)) is added to each sample and incubated for 12 minutes at room temperature. The tubes are centrifuged at 300×g for 7 minutes. BD Lyse/Fix solution is aspirated and the cell pellet washed with stain/wash buffer 3 times (1 wash step consisted of: pellet resuspended in 3 mL stain/wash buffer, centrifuged at 300×g, aspirated wash). Fixed cells are then resuspended in 300 to 400 μL stain/wash buffer. Samples are analyzed on a Becton Dickinson FACSVerse Flow cytometer (Cat #651155 Serial #Z6511550447) using standard flow cytometry principles and techniques. Samples are analyzed on the same day as they are stained and fixed. Population gating and data analysis of percent population are performed in the FACSuite software on the FACSVerse cytometer. Percent population values from the data analysis are plotted in Graphpad Prism or in JMP13. […]

[2] = system: IDH1(R132H) primary human AML cells; assay: AML cell differentiation in blood (flow cytometry, % hCD33+hCD11b+ of hCD45+ cells), human AML PDx models in NSG mice; conditions: for AML cell differentiation (% hCD33 + hCD11b+ (of hCD45+ cells)): QD, PO
Procedure: as §1

[3] = system: IDH1(R132H) primary human AML cells; assay: Bone marrow AML clearance (flow cytometry), human AML PDx models in NSG mice; conditions: for Bone Marrow AML Clearance: % hCD33 + hCD45+ (% of white cells) / Bone Marrow AML Clearance: % hCD45+ (% of white cells): QD, PO, each line one animal
Procedure: as §1

## C=CC(=O)N1CCN([C@@H](CC2CC2)c2ccc([C@H](C)Nc3ncc4c(n3)N(CC)C(=O)OC4)cc2)CC1 [Compound A, 7-[[(1S)-1-[4-[(1S)-2-cyclopropyl-1-(4-prop-2-enoylpiperazin-1-yl)ethyl]phenyl]ethyl]amino]-1-ethyl-4H-pyrimido[4,5-d][1,3]oxazin-2-one]
[1]; day 64, group B: 1 mg Compound A, vehicle 67%
  % peripheral blood AML cells (treatment group value): 51%
[1]; day 64, group C: 10 mg Compound A, vehicle 67%
  % peripheral blood AML cells (treatment group value): 1.1%
[1]; day 78, group B: 1 mg Compound A, vehicle 129%
  % peripheral blood AML cells (treatment group value): 65%
[1]; day 78, group C: 10 mg Compound A, vehicle 129%
  % peripheral blood AML cells (treatment group value): 0.66%
[2]; B: 1 mg/kg Compound A, treatment day −8 (before treatment), one animal
  AML cell differentiation (% hCD33 + hCD11b+ (of hCD45+ cells)): 19.01% and 16.75%
[2]; Treatment day 2, 3.3 mg/kg Compound A, Table 2B, each value one animal, 3.3 mg/kg
  AML cell differentiation (% hCD33 + hCD11b+ (of hCD45+ cells)): 14.12% and 16.05% and 13.27% and 10.34% and 11.59% and 13.32% and 14.01%
[2]; Treatment day 15, 3.3 mg/kg Compound A, Table 2B, each value one animal, 3.3 mg/kg
  AML cell differentiation (% hCD33 + hCD11b+ (of hCD45+ cells)): 33.42% and 27.78% and 36.01% and 28.02% and 28.21% and 29.24% and 33.82%
[2]; Treatment day 18, 3.3 mg/kg Compound A, each value one animal, 3.3 mg/kg
  AML cell differentiation (% hCD33 + hCD11b+ (of hCD45+ cells)): 23.96% and 27.78% and 22.27% and 22.38% and 22.41% and 29.38% and 24.62%
[2]; Treatment day 28, 3.3 mg/kg Compound A, Table 2B, each value one animal, 3.3 mg/kg
  AML cell differentiation (% hCD33 + hCD11b+ (of hCD45+ cells)): 35.79% and 36.46% and 33.59% and 39.91% and 37.16% and 40.47%
[2]; Treatment day 34, 3.3 mg/kg Compound A, each value one animal, 3.3 mg/kg
  AML cell differentiation (% hCD33 + hCD11b+ (of hCD45+ cells)): 30.68% and 27.59% and 29.94% and 25.81% and 29.79% and 34.39% and 29.26%
[2]; Treatment day 43, 3.3 mg/kg Compound A, Table 2B, each value one animal, 3.3 mg/kg
  AML cell differentiation (% hCD33 + hCD11b+ (of hCD45+ cells)): 37.51% and 35.22% and 33.33% and 36.61% and 41.32% and 33.68% and 39.34%
[2]; Treatment day 47, 3.3 mg/kg Compound A, each value one animal, 3.3 mg/kg
  AML cell differentiation (% hCD33 + hCD11b+ (of hCD45+ cells)): 37.61% and 35.31% and 38.58% and 39.61% and 31.81% and 41.02% and 35.79%
[2]; Treatment day 58, 3.3 mg/kg Compound A, Table 2B, each value one animal, 3.3 mg/kg
  AML cell differentiation (% hCD33 + hCD11b+ (of hCD45+ cells)): 42.9% and 44.03% and 33.47% and 48.08% and 47.13% and 40.2% and 26.62%
[2]; Treatment day 61, 3.3 mg/kg Compound A, each value one animal, 3.3 mg/kg
  AML cell differentiation (% hCD33 + hCD11b+ (of hCD45+ cells)): 37.61% and 40.23% and 40.06% and 33.82% and 32.55% and 43.95% and 44%
[2]; Treatment day 75, 3.3 mg/kg Compound A, each value one animal, 3.3 mg/kg
  AML cell differentiation (% hCD33 + hCD11b+ (of hCD45+ cells)): 33.98% and 35.9% and 31.38% and 37.53% and 34.66% and 51.92%
[2]; Treatment day 77, 3.3 mg/kg Compound A, Table 2B, each value one animal, 3.3 mg/kg
  AML cell differentiation (% hCD33 + hCD11b+ (of hCD45+ cells)): 56.29% and 46.83% and 42.98% and 48.3% and 51.69% and 48.56%
[2]; Treatment day 89, 3.3 mg/kg Compound A, each value one animal, 3.3 mg/kg
  AML cell differentiation (% hCD33 + hCD11b+ (of hCD45+ cells)): 21.32% and 43.96% and 40.34% and 28.57% and 37.17% and 45.68%
[2]; Treatment day 98, 3.3 mg/kg Compound A, Table 2B, each value one animal, 3.3 mg/kg
  AML cell differentiation (% hCD33 + hCD11b+ (of hCD45+ cells)): 44.09% and 47.66% and 33.67% and 36.45% and 33.6%
[2]; Treatment day −3, 3.3 mg/kg Compound A, each value one animal, 3.3 mg/kg
  AML cell differentiation (% hCD33 + hCD11b+ (of hCD45+ cells)): 11.93% and 12% and 13.59% and 13.22% and 11.07% and 13.07%
[2]; Treatment day −19, 3.3 mg/kg Compound A, Table 2B, each value one animal, 3.3 mg/kg
  AML cell differentiation (% hCD33 + hCD11b+ (of hCD45+ cells)): 1.45% and 2.19% and 0.38% and 2.21% and 0.64% and 0.34% and 0.68%
[2]; day 43, group B: Compound A (3.3 mg/kg), azacitidine study, vehicle 15%
  % AML cell differentiation (treatment group value): 37%
[2]; day 47, group B: Compound A (3.3 mg/kg), cytarabine study, vehicle 10%
  % AML cell differentiation (treatment group value): 37%
[2]; day 50, group B: 1 mg Compound A, vehicle 28%
  % AML cell differentiation (treatment group value): 43%
[2]; day 50, group C: 10 mg Compound A, vehicle 28%
  % AML cell differentiation (treatment group value): 79%
[3]; 1 mg/kg Compound A
  Bone Marrow AML Clearance: % hCD33 + hCD45+ (% of white cells): 87.74% and 92.23%
  Bone Marrow AML Clearance: % hCD45+ (% of white cells): 88.34% and 92.36%
[3]; 3.3 mg/kg Compound A, Table 1C
  Bone Marrow AML Clearance: % hCD33 + hCD45+ (% of white cells): 98.6% and 44.3% and 98.54% and 86.55%
  Bone Marrow AML Clearance: % hCD45+ (% of white cells): 98.36% and 43.99% and 98.15% and 86.21%
[3]; 3.3 mg/kg Compound A, Table 2C
  Bone Marrow AML Clearance: % hCD33 + hCD45+ (% of white cells): 72.73% and 84.3% and 99.41% and 91.97%
  Bone Marrow AML Clearance: % hCD45+ (% of white cells): 72.6% and 84.16% and 99.3% and 91.11%
[3]; 10 mg/kg Compound A
  Bone Marrow AML Clearance: % hCD33 + hCD45+ (% of white cells): 8.65% and 4.27% and 1.09% and 0.78% and 1.84%
  Bone Marrow AML Clearance: % hCD45+ (% of white cells): 8.66% and 4.28% and 1.11% and 0.78% and 1.85%
[3]; group B: 1 mg Compound A, vehicle 86%
  % human AML cells in bone marrow (of white cells; lower = more clearance): 90%
[3]; group B: Compound A (3.3 mg/kg), azacitidine study, vehicle 94%
  % human AML cells in bone marrow (of white cells; lower = more clearance): 87%
[3]; group B: Compound A (3.3 mg/kg), cytarabine study, vehicle 94%
  % human AML cells in bone marrow (of white cells; lower = more clearance): 78%
[3]; group C: 10 mg Compound A, vehicle 86%
  % human AML cells in bone marrow (of white cells; lower = more clearance): 2.3%
